Measurements taken from patent publication US5945407A, “Methods and compositions using butyrate esters of threitol” (Vertex Pharmaceuticals, Incorporated, priority 1998, dated 1999).
Values belong to the compound of their own block, whether it stands above or below them.

Experiments:
[1] = Pharmacokinetic variability of serum butyrate (standard deviation of a parameter such as Cmax or AUC divided by its mean); type: in vivo
Text: Pharmacokinetic variability is the measure of differences in the serum butyrate concentrations between different patients administered the same amount of butyrate esters of threitol. Pharmacokinetic variability is quantified by dividing the standard deviation for a given parameter, such as Cmax or AUC, by the mean value of that parameter, in a series of patients given dose the same dosage of butyrate ester of threitol.

[2] = Oral bioavailability and sustenance of plasma concentrations of butyric acid in rats after oral gavage; type: in vivo, rats (Sprague Dawley); settings: rat; for AUC: butyric acid in plasma, oral gavage, mean ± SD
Protocol: We evaluated oral bioavailability and sustenance of plasma concentrations of butyric acid in rats receiving tetrabutyrate esters of threitol and tributyrin by oral gavage.
This assay was carried out according to the protocol described in Daniel et al., Clinca Chimica Acta., 181, pp. 255-64 (1989); Planchon et al., J. Pharm. Sci., 82, pp. 1046-48 (1993); Pouillart et al., J. Pharm Sci., 81, pp. 241-44 (1992). Each compound was tested in five to six rats (Sprague Dawley; Harlan Labs, Inc.) weighing approximately 300 grams each. In that table, data are expressed as mean ± standard deviation (range) and were compared using the unpaired Student's t-test.

[3] = leukemia patients; continuous infusions of sodium butyrate; cited from earlier work
fetal hemoglobin = settings: sickle cell anemia patients; cited from earlier work
[4] = system: tumor and leukemia in mice; settings: cited from earlier work
in vitro = settings: cell culture
leukemia patients = settings: by inducing cell differentiation; cited from earlier work
[5] = system: Cultured Erythroleukemic Cells; settings: in vitro; cited from earlier work

pharmacokinetic variability ([1]; standard deviation / mean of a parameter such as Cmax or AUC): 70% | AUC ([2]; 3.0 gm/kg): 1590 ± 930 µM·h | oral bioavailability (to provide therapeutic plasma levels of butyric acid) ([2]; oral): orally bioavailable | variability of release of butyric acid in vivo ([2]; oral, tetrabutyrate esters of threitol vs tributyrin): more variable
SMILES: CCCC(=O)OCC(COC(=O)CCC)OC(=O)CCC [tributyrin]

pharmacokinetic variability ([1]; in vivo): 35-40%
SMILES: CCCC(=O)OC[C@H](OC(=O)CCC)[C@@H](COC(=O)CCC)OC(=O)CCC [tetrabutyrate ester of mesothreitol]

MCC (in vitro): > 3 mM
SMILES: CCCC(=O)O [butyric acid]
effect in leukemia patients (leukemia patients): promising effects | cell differentiation [5]: induces cell differentiation

AUC ([2]; 2.8 gm/kg): 900 ± 260 µM·h
SMILES: CCCC(=O)OC[C@@H](OC(=O)CCC)[C@@H](COC(=O)CCC)OC(=O)CCC [d-threitol tetrabutyrate ester]

The next lines start with the compound.

SMILES: CCCC(=O)[O-].[Na+] [sodium butyrate]
plasma half-life of butyric acid [3]: 6 min

SMILES: NC(=O)NO [hydroxyurea]
fetal hemoglobin production (fetal hemoglobin): stimulates fetal hemoglobin production | sickling crisis (fetal hemoglobin): reduces sickling crisis

SMILES: CCCC(=O)O [arginine butyrate]
anti-tumor and anti-leukemia effects [4]: anti-tumor and anti-leukemia effects

SMILES: CCCC(=O)OC[C@H](OC(=O)CCC)[C@H](COC(=O)CCC)OC(=O)CCC [l-threitol tetrabutyrate ester]
AUC ([2]; 2.4 gm/kg): 1200 ± 400 µM·h
